Laboratory results as given in patent US10864279B2, “Linker-drug and antibody-drug conjugate (ADC) employing the same” (priority 2016, dated 2020).
pIC50: −log10 of the molar value.

Key:
[1] = Storage test in DMSO (LC-MS); assay type: physicochemical; conditions: 20 mM in DMSO, 0, 21, 92 and 99 days at −20° C.
Protocol: 20 mM Linker-drug 7 was stored in DMSO for 0, 21, 92 and 99 days at −20° C. LC-MS was used to analyze the purity of Linker-drug 7. The condition of LC-MS analysis was as follows.
Column: 4.6 mm×20 mm XBridge C18 column (Waters, Milford USA)
Linear gradient: 5 to 70% solvent B (100% acetonitrile with 0.1% formic acid)
Solvent A (0.1% formic acid in ddH2O)
Solvent B (100% acetonitrile with 0.1% formic acid)

[2] = test system: HER2-negative cell lines MDA-MB-468; assay: Potency test, CCK-8 cell viability, MDA-MB-468; assay type: cell-based; conditions: HER2 expression negative, 72-120 hours
Protocol: (§1) Cells were seeded in Corning CellBIND 96-well plates at densities of 6×10^3 cells/well. After incubation overnight at 37° C., 5% CO2 incubator, different concentrations of ADCs were added to the cells in serial dilutions. The cells were then incubated for 72-120 hours at 37° C., 5% CO2 incubator. After 72-120 hours, the old medium was removed and the cells were rinsed once and treated with 10-fold diluted CCK-8 reagent at 37° C. for 4 hours. The 96-well plates were put in the ELISA reader to measure the absorbance wavelength at 450 nm. Cell viability was calculated by the following equation: Cell Viability (%)=(Intensity of sample/Intensity of control)×100%. IC50 values of the ADC samples were calculated using SigmaPlot software.

[3] = test system: HER2 high-expressing breast cancer cell lines BT-474; assay: Potency test, CCK-8 cell viability, BT-474; assay type: cell-based; conditions: for pIC50: HER2 expression 3+, 72-120 hours; for In vitro selectivity MDA-MB-468/BT-474: ratio of IC50
Protocol: as §1

[4] = test system: Endometrial cancer tumor tissue, HER2-positive (+1); assay: Tumor growth inhibition test: EC PDX model; assay type: in vivo, NODSCID mice; conditions: 10 mg/kg i.v.; Day 12, table head Day 0-60
Protocol: Endometrial cancer tumor tissue obtained from National Taiwan University was confirmed to be HER2-positive (+1). Tumor (2-3 mm diameter) was subcutaneous implanted to NODSCID mice to test the drug efficacy of ADCs in vivo. When the average tumor size was about 100 mm^3, mice were divided into groups and ADCs were intravenously injected (10 mL/kg B.W. injection volume).

[5] = test system: HER2 moderate-expressing breast cancer cell lines JIMT-1 with anti-Herceptin drug resistance; assay: Potency test, CCK-8 cell viability, JIMT-1; assay type: cell-based; conditions: for pIC50: HER2 expression 2+ resistant, 72-120 hours; for In vitro selectivity MDA-MB-468/JIMT-1: ratio of IC50
Protocol: as §1

Compound: CC[C@H](C)[C@@H]([C@@H](CC(=O)C1CCCN1[C@H](OC)[C@@H](C)C(=O)N[C@H](Cc1ccccc1)C(=O)NCCc1ccc(NC(=O)[C@@H](CCCNC(N)=O)NC(=O)[C@@H](NC(=O)COCCOCCOCCOCCNC(=O)c2ccc(NC(=O)CCl)c(NC(=O)CCl)c2)C(C)C)cc1)OC)N(C)C(=O)[C@H](NC(=O)[C@H](C(C)C)N(C)C)C(C)C (stereo partly drawn) [Linker-drug 7]
- storage stability (purity by LC-MS) [1]: stable when dissolved in DMSO

Compound: ado-trastuzumab emtansine [Kadcyla]
- pIC50 ([2]; Table 3): 7.82
- pIC50 ([2]; Table 4): 8.09
- pIC50 ([3]; Table 3): 8.64
- pIC50 ([3]; Table 4): 9.51
- In vitro selectivity MDA-MB-468/BT-474 ([3]; Table 3): 5.5
- In vitro selectivity MDA-MB-468/BT-474 ([3]; Table 4): 26.16
- TGI (%) ± SEM [4]: 26.5±10.1%
- pIC50 ([5]; Table 3): 7.81
- pIC50 ([5]; Table 4): 7.57
- In vitro selectivity MDA-MB-468/JIMT-1 ([5]; Table 3): 1
- In vitro selectivity MDA-MB-468/JIMT-1 ([5]; Table 4): 0.30
